Experimental data reported in publication PMC11078216, “Discovery of potent and selective activity-based probes (ABPs) for the deubiquitinating enzyme USP30” (RSC Chemical Biology, 2024).

Columns and labels:
Assay in all cases: ABPP chemical proteomics (LC-MS/MS) in HEK293T cells
Format in all cases: cell-based
[1] = biological target: T1, AURKAIP1 (Homo sapiens, UniProt Q9NWT8); conditions: IMP-2586 labelling vs DMSO, 30 nM, 10 min, HEK293T (Table S4, Fig.5c)
T1 construct: endogenous in cells; host or cells: HEK293T
Protocol: (§1) To explore the selectivity of IMP-2587 and IMP-2586 across the whole proteome, we performed quantitative activity-based protein profiling (ABPP) in HEK293T cells following treatment with IMP-2587 or IMP-2586 (Fig. 3a). After ABP incubation, cells were lysed, and probe-labelled proteins were ligated to biotinylated capture reagents.[27] […] USP30 was outcompeted by corresponding parent inhibitors for each ABP (Fig. 5b and d and Tables S3 and S5, ESI ^†), confirming the high potency and rapid engagement of IMP-2587 and IMP-2586 in cells. […] DESI1 and DESI2 are small ubiquitin-related modifier (SUMO) proteases,[3,29–32] and IMP-2587 and IMP-2586 may offer a starting point for future development of DESI ABPs. […]
(§2) d) Live cell probe incubation, lysate click chemistry and precipitation 6-well HEK293T cells were incubated with media containing compounds ABP 2 and ABP 4 at indicated concentrations for 1 h at 37 °C. The cells were washed with PBS and lysed with lysis buffer (50 μL (1% (v/v) Triton X-100, 0.1% (w/v) sodium dodecyl sulfate (SDS), EDTA-free complete protease inhibitor cocktail (1×, Roche) in PBS on ice for 10 min. The lysates were scraped and transferred to corresponding Lo-Bind Eppendorfs. Each lysate was sonicated for 1 minute, and the samples centrifuges at 5,000 x g at 4 °C for 5 minutes to pellet insoluble cellular debris. The supernatant was collected, and protein concentration was determined using the DC Protein Assay (Bio-Rad) as per manufacturer’s instructions, and normalised to lowest concentrated sample (e.g. 1 mg/mL, using lysis buffer). The following “click mixture” was prepared separately, preparing 6 μL for every 100 μL of […]
(§3) Capture reagent (AzRB/AzT for ABP 2, YnT/YnB for ABP 4 10 mM in DMSO, 1 vol; final concentration […]
(§4) CuSO4 (50 mM in water, 2 vol; final concentration in reaction 1 mM)
(§5) TCEP (50 mM in water, 2 vol; final concentration in reaction 1 mM)
(§6) TBTA (10 mM in DMSO, 1 vol; final concentration in reaction 100 µM)
(§7) The click mixture was vortexed and incubated at room temperature for 2 min before 6 μL of the mixture was added to every 100 μL of lysate. The reaction mixtures were shaken at room temperature for 1 h before being quenched with EDTA (500 mM in H2O) to a final concentration of 10 mM.
(§8) Proteins were precipitated by adding H2O (1 vol), MeOH (2 vol) and CHCl3 (0.5 vol), vortexing briefly then centrifuging at 17,000 × g for 5 min. The top H2O/MeOH layer was discarded and the middle layer of protein pellet and lower CHCl3 layer retained. The suspension was washed with MeOH (300 μL), and sonicated to break up the pellet. The proteins were pelleted by centrifugation at 10,000–17000 × g for 5–10 min or until a compact pellet was formed. The protein pellet was washed once more with MeOH (1 mL). The pellet was resuspended by sonicating and completely dissolving in 1% (w/v) SDS in PBS (to 5 mg/mL protein) before being made up to 1 mg/mL protein with PBS.
(§9) The lysate samples (10-20 μg) were mixed with 4× Laemmli sample loading buffer (250 mM Tris -HCl pH 6.8, 30% (v/v) glycerol, 10% (w/v) SDS, 0.05% (w/v) bromophenol blue) supplemented with 20% v/v β-mercaptoethanol (BME) and boiled for 10 min at 95 °C. The resulting protein samples were separated according to the protocol in section 3.2.c. Gel were imaged on a Typhoon imager (GE Healthcare; λEx 532 nm, λEm 575 nm for TAMRA. For protein loading quantification, gels were stained with Coomassie blue staining solution overnight, rinsed with water and imaged on an ImageQuant™ LAS 4000 imager (GE Healthcare). f) Neutravidin biotin enrichment (Affinity pull-down)
(§10) Click chemistry and precipitation steps were carried out as described in section 3.2.d, on at least 400ug of protein per sample. The pellet was resuspended by sonicating and completely dissolving in 1% (w/v) SDS in HEPES 50 mM pH 8.0, before being made up to 1 mg/mL protein with HEPES 50 mM pH 8.0 to […]
(§11) achieve a final concentration of 0.2% SDS. 20uL of each samples was collected as TL (Total lysate) […]
(§12) samples. […]

[2] = system: CAV1; conditions: IMP-2586 labelling vs DMSO, 30 nM, 10 min, HEK293T (Table S4, Fig.5c)
Protocol: as §1, §2, §3, §4, §5, §6, §7, §8, §9, §10, §11, §12

[3] = biological target: T2, CNP (Homo sapiens, UniProt P09543); conditions: IMP-2586 labelling vs DMSO, 30 nM, 10 min, HEK293T (Table S4, Fig.5c)
T2 construct: endogenous in cells; host or cells: HEK293T
T2 sequence (P09543 whole entry): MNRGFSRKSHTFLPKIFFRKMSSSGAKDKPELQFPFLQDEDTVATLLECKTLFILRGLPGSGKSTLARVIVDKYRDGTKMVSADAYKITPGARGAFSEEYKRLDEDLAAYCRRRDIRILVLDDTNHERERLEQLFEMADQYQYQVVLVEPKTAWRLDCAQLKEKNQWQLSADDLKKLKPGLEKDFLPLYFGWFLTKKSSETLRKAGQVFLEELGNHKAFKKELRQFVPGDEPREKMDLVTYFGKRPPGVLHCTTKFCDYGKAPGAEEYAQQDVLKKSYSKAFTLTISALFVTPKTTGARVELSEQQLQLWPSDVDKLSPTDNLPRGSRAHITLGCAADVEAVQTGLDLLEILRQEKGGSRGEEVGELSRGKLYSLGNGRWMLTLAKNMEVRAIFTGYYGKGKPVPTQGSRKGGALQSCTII
Protocol: as §1, §2, §3, §4, §5, §6, §7, §8, §9, §10, §11, §12

[4] = biological target: T3, MALT1 (Homo sapiens, UniProt Q9UDY8); conditions: IMP-2586 labelling vs DMSO, 30 nM, 10 min, HEK293T (Table S4, Fig.5c)
T3 construct: endogenous in cells; host or cells: HEK293T
T3 sequence (Q9UDY8 whole entry): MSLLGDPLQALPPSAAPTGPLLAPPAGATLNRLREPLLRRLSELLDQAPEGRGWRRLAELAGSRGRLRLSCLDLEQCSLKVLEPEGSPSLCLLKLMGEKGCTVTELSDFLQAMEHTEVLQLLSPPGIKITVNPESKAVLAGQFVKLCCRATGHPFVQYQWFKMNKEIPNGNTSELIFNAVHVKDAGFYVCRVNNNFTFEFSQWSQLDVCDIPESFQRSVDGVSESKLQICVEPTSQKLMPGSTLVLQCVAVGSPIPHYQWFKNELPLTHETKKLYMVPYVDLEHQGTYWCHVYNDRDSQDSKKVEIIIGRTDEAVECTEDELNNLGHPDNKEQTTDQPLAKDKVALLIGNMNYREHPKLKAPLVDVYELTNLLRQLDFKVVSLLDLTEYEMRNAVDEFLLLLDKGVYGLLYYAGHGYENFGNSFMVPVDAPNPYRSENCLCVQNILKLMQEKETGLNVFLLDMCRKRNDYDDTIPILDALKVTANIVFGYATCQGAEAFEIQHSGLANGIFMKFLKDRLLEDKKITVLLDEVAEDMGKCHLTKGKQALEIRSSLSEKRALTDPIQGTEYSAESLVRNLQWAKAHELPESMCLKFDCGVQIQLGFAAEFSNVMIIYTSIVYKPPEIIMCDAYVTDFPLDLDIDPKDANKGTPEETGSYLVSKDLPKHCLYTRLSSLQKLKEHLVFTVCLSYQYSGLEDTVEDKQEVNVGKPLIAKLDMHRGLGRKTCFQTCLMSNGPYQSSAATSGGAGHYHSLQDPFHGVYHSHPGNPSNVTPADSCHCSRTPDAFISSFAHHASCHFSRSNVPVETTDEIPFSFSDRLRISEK
Protocol: as §1, §2, §3, §4, §5, §6, §7, §8, §9, §10, §11, §12

[5] = biological target: T4, RER1 (Homo sapiens, UniProt O15258); conditions: IMP-2586 labelling vs DMSO, 30 nM, 10 min, HEK293T (Table S4, Fig.5c)
T4 construct: endogenous in cells; host or cells: HEK293T
T4 sequence (O15258 whole entry): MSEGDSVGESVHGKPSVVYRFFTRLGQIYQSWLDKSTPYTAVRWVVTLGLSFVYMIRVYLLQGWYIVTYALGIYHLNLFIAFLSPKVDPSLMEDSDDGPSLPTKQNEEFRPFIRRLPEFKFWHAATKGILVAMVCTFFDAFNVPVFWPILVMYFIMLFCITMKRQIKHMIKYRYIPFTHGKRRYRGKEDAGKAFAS
Protocol: as §1, §2, §3, §4, §5, §6, §7, §8, §9, §10, §11, §12

[6] = biological target: T5, RPL23A (Homo sapiens, UniProt P62750); conditions: IMP-2586 labelling vs DMSO, 30 nM, 10 min, HEK293T (Table S4, Fig.5c)
T5 construct: endogenous in cells; host or cells: HEK293T
Protocol: as §1, §2, §3, §4, §5, §6, §7, §8, §9, §10, §11, §12

[7] = biological target: T6, SFT2D3 (Homo sapiens, UniProt Q587I9); conditions: IMP-2586 labelling vs DMSO, 30 nM, 10 min, HEK293T (Table S4, Fig.5c)
T6 construct: endogenous in cells; host or cells: HEK293T
T6 sequence (Q587I9 whole entry): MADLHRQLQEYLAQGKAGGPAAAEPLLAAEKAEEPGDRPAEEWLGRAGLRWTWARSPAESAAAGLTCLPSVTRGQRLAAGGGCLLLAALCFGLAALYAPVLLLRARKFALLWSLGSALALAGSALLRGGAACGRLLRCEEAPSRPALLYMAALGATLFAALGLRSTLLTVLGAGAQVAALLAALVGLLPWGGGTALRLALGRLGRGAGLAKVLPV
Protocol: as §1, §2, §3, §4, §5, §6, §7, §8, §9, §10, §11, §12

[8] = biological target: T7, SMARCA4 (Homo sapiens, UniProt P51532); conditions: IMP-2586 labelling vs DMSO, 30 nM, 10 min, HEK293T (Table S4, Fig.5c)
T7 construct: endogenous in cells; host or cells: HEK293T
T7 sequence (P51532 whole entry): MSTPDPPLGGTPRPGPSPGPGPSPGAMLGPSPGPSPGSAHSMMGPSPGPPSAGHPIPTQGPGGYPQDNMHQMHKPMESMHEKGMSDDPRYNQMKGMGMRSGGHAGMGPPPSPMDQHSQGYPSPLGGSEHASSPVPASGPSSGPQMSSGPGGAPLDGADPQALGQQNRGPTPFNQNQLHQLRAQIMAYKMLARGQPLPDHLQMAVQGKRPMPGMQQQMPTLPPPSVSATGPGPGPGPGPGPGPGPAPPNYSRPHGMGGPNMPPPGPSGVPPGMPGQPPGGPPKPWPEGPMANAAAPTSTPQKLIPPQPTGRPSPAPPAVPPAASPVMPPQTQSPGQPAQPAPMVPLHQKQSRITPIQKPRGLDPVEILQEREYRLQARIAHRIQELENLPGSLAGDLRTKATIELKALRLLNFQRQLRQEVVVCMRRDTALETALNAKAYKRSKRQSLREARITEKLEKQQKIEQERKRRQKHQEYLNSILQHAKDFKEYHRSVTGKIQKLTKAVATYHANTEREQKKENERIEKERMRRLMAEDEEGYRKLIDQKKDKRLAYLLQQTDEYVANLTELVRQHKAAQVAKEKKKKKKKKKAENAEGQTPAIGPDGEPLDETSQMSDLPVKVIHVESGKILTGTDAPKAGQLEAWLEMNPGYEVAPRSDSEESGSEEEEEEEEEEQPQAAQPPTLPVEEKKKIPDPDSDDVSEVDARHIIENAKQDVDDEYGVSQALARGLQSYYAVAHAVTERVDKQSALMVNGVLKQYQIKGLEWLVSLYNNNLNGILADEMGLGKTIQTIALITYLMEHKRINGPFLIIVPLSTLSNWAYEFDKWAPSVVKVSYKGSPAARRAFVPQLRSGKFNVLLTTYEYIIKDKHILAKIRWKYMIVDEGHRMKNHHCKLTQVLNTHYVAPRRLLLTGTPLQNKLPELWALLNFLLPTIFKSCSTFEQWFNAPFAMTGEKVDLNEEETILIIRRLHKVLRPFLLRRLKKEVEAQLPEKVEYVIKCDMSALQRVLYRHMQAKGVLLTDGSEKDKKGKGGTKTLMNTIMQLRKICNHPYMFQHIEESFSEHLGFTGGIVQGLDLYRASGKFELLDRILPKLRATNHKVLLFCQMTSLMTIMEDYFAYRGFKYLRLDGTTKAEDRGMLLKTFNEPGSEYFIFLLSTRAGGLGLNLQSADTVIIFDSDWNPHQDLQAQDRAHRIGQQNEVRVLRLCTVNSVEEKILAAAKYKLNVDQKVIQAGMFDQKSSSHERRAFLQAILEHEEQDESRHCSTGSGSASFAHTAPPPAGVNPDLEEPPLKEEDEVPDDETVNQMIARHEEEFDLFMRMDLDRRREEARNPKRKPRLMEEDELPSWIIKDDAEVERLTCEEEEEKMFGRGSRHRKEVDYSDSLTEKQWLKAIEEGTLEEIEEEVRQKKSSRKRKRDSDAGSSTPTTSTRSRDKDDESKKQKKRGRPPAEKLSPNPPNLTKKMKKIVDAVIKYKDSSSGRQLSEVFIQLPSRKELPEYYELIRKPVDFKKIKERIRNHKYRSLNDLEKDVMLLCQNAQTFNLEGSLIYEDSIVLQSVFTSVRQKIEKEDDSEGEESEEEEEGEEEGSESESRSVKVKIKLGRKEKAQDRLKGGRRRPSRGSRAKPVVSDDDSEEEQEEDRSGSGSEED
Protocol: as §1, §2, §3, §4, §5, §6, §7, §8, §9, §10, §11, §12

[9] = biological target: T8, TMEM263 (Homo sapiens, UniProt Q8WUH6); conditions: IMP-2586 labelling vs DMSO, 30 nM, 10 min, HEK293T (Table S4, Fig.5c)
T8 construct: endogenous in cells; host or cells: HEK293T
Protocol: as §1, §2, §3, §4, §5, §6, §7, §8, §9, §10, §11, §12

[10] = biological target: T9, GET4 (Homo sapiens, UniProt Q7L5D6); conditions: IMP-2587 labelling vs DMSO, 30 nM, 10 min, HEK293T (Table S2, Fig.5a)
T9 construct: endogenous in cells; host or cells: HEK293T
T9 sequence (Q7L5D6 whole entry): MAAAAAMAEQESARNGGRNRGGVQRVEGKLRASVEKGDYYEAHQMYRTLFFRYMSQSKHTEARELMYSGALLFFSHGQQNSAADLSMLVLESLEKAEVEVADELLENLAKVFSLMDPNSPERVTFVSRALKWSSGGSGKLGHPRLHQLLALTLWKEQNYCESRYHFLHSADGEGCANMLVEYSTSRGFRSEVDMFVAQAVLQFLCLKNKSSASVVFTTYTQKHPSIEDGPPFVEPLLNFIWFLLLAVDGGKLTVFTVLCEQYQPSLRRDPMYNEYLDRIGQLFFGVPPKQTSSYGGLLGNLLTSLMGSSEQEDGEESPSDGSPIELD
Protocol: as §1, §2, §3, §4, §5, §6, §7, §8, §9, §10, §11, §12

[11] = system: H2AFV;H2AFZ; conditions: IMP-2587 labelling vs DMSO, 30 nM, 10 min, HEK293T (Table S2, Fig.5a)
Protocol: as §1, §2, §3, §4, §5, §6, §7, §8, §9, §10, §11, §12

[12] = biological target: T10, HMGCS1 (Homo sapiens, UniProt Q01581); conditions: IMP-2587 labelling vs DMSO, 30 nM, 10 min, HEK293T (Table S2, Fig.5a)
T10 construct: endogenous in cells; host or cells: HEK293T
T10 sequence (Q01581 whole entry): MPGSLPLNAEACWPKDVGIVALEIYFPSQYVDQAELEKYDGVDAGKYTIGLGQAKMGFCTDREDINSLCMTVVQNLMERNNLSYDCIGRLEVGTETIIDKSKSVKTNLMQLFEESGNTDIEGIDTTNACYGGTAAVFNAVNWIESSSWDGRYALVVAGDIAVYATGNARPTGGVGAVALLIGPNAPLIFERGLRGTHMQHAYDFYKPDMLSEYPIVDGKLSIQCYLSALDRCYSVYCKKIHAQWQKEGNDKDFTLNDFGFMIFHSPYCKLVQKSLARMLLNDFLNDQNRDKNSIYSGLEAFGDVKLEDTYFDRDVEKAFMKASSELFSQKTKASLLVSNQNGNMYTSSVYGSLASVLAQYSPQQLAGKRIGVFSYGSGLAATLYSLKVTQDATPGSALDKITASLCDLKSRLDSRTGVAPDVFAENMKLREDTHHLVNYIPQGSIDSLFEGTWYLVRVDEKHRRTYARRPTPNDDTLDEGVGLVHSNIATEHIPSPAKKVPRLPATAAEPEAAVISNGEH
Protocol: as §1, §2, §3, §4, §5, §6, §7, §8, §9, §10, §11, §12

[13] = biological target: T11, NPM3 (Homo sapiens, UniProt O75607); conditions: IMP-2587 labelling vs DMSO, 30 nM, 10 min, HEK293T (Table S2, Fig.5a)
T11 construct: endogenous in cells; host or cells: HEK293T
T11 sequence (O75607 whole entry): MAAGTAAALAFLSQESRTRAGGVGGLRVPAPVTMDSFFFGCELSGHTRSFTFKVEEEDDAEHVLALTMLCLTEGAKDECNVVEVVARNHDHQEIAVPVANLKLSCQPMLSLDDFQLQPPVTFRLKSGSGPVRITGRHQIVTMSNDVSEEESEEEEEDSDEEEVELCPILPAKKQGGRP
Protocol: as §1, §2, §3, §4, §5, §6, §7, §8, §9, §10, §11, §12

[14] = biological target: T12, IMPDH2 (Homo sapiens, UniProt P12268); conditions: compound 1 out-competition with IMP-2587 labelling, HEK293T (Table S3, Fig.5b)
T12 construct: endogenous in cells; host or cells: HEK293T
Protocol: as §1, §2, §3, §4, §5, §6, §7, §8, §9, §10, §11, §12

[15] = biological target: T13, NUB1 (Homo sapiens, UniProt Q9Y5A7); conditions: compound 3 out-competition with IMP-2586 labelling, HEK293T (Table S5, Fig.5d)
T13 construct: endogenous in cells; host or cells: HEK293T
T13 sequence (Q9Y5A7 whole entry): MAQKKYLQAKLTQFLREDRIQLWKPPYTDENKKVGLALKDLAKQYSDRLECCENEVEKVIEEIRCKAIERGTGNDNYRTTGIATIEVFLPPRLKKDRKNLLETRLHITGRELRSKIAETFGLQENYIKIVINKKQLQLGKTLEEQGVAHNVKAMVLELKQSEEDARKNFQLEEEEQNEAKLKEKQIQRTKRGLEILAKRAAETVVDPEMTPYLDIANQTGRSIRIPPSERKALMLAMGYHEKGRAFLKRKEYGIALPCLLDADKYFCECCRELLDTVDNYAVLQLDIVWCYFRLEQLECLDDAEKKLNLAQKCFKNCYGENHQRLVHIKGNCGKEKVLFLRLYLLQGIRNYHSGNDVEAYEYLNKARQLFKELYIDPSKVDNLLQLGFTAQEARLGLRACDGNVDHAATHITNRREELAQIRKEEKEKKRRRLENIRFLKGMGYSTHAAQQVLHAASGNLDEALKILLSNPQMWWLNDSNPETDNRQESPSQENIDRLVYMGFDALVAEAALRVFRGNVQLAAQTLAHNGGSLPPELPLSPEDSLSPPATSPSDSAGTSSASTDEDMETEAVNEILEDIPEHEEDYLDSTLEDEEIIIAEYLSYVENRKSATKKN
Protocol: as §1, §2, §3, §4, §5, §6, §7, §8, §9, §10, §11, §12

Structure (SMILES): N#CN1CC[C@@H](NC(=O)c2cc(-c3ccccc3Oc3ccc(N=[N+]=[N-])cc3)n[nH]2)C1 [IMP-2586]
- Difference (log2 fold change of enrichment) [1]: 0.81
- Difference (log2 fold change of enrichment) ([2]; CAV1 (Caveolin)): -2.47
- Difference (log2 fold change of enrichment) ([2]; CAV1 (Caveolin-1)): -1.61
- Difference (log2 fold change of enrichment) [3]: -0.68
- Difference (log2 fold change of enrichment) [4]: 0.75
- Difference (log2 fold change of enrichment) [5]: -1.34
- Difference (log2 fold change of enrichment) [6]: -0.57
- Difference (log2 fold change of enrichment) [7]: -1.51
- Difference (log2 fold change of enrichment) [8]: 0.52
- Difference (log2 fold change of enrichment) [9]: -0.44

Structure (SMILES): C#Cc1cccc(-c2cc(NC(=O)CC3CCN(C#N)C3)on2)c1 (stereo not shown) [IMP-2587]
- Difference (log2 fold change of enrichment) [10]: 0.76
- Difference (log2 fold change of enrichment) [11]: 0.65
- Difference (log2 fold change of enrichment) [12]: 0.75
- Difference (log2 fold change of enrichment) [13]: 0.89

Structure (SMILES): N#CN1CC[C@H](CC(=O)Nc2cc(-c3cccc(Cl)c3)no2)C1 [compound 1, reference compound]
- Difference (log2 fold change of enrichment) [14]: -0.70

Structure (SMILES): N#CN1CC[C@@H](NC(=O)c2cc(-c3ccccc3Oc3ccccc3)n[nH]2)C1 [compound 3, reference compound]
- Difference (log2 fold change of enrichment) [15]: -0.38
